According to patent US20090203720A1, “Methods for inhibiting cell growth” (priority 2003, published 2009):
Each block holds one compound with its values, some of them ahead of it.

How the values were obtained:
[1] = target: CK1α (Homo sapiens, UniProt P48729); test: In vitro kinase assay of RXR immunoprecipitated complexes with inhibitor in the assay mixture; type: biochemical; conditions: RXR immunoprecipitated complexes from Compound 1-treated HEK293 Flag-RXR cells; read-out: IC50 for inhibition of phosphorylation of RXR and p160
Chain of CK1α (P48729 whole entry, one chain of several, canonical isoform): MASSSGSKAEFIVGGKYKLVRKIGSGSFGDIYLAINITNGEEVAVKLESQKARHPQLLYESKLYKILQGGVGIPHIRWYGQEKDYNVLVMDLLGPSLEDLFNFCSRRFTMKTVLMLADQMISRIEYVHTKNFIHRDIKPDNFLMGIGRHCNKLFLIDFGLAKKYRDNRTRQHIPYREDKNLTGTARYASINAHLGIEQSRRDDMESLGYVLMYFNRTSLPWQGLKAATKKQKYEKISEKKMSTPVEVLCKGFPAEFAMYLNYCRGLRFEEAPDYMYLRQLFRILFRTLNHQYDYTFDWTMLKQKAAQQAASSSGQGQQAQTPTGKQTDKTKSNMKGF
Protocol: To determine that the kinase activity which phosphorylates RXR and p160 in the RXR complex is only contributed by CK1α, in vitro kinase assays of the RXR immunoprecipitated complexes in the presence of various concentrations of a known CK1 specific inhibitor CK1-7 (25) was performed.
The immunoprecipitated complexes were re-suspended in 15 μl of kinase assay buffer (30 mM Tris-HCl, pH 7.4 and 10 mM MgCl2). The kinase reactions were initiated by adding 2 μl of 50 μM [γ-32P]ATP (10 μCi) into the immunocomplexes, followed by incubation at 30° C. with shaking for 20 min, and terminated by adding 6 μl of 4× SDS sample loading buffer. After heating at 100° C. for 5 min, the reaction mixtures were resolved by 4-12% SDS-PAGE. The incorporation of ^32P into RXR and other proteins was determined by subjecting the gel to autoradiography.

[2] = test system: CK1 isoforms; conditions: literature (refs 25,26); read-out: reported IC50 for inhibition of CK1 isoforms; cited from earlier work
[3] = test system: DT40 cells; test: Apoptosis by FACS DNA content analysis (propidium iodide); type: cell-based; conditions: 10 nM, 3 days, cells with DNA content less than G1, 3.5% without agonist
Protocol: (§1) Cells having a DNA content less than the G1 population were considered as apoptotic cells.
(§2) For immunoblotting, proteins from cell lysates or immunoprecipitates were subjected to separation on SDS-PAGE (38). The resolved polypeptides were transferred to PVDF membrane and analyzed by immunoblotting (39). The targeted proteins were detected using the enhanced chemiluminescence immunodetection system (Amersham). DNA content analysis by FACS was performed on FACScan™ (Becton Dickinson) as described (40).

[4] = test system: DT40RXR cells; test: as above; type: cell-based; conditions: 10 nM, 3 days, 10.4% without agonist
Protocol: as §1, §2

[5] = test system: Jurkat cells; test: as above; type: cell-based; conditions: 10 nM, 3 days, 2.8% without agonist
Protocol: as §1, §2

[6] = test system: JurkatRXR cells; test: as above; type: cell-based; conditions: 10 nM, 3 days, 11.9% without agonist
Protocol: as §1, §2

[7] = test system: DT40RXR cells; test: Activation of caspases 3 and 9; type: cell-based
Protocol: (§3) Caspase activities were measured following manufacturer's protocols and presented as fold increase in relative to control.
(§4) The sensitivity of the wild-type cells and the cells stably expressing RXR to RXR agonist treatment.

[8] = test system: DT40RXR and JurkatRXR cells; test: Cell death/growth inhibition in RXR-overexpressing versus parental cells; type: cell-based; conditions: JurkatRXR vs parental cells, 3 days
Protocol: FIGS. 1A, 1B and 1C show RXR and RXR agonist dependent cell growth inhibition: DT40, DT40RXR, Jurkat, and JurkatRXR cells (5×10^3 cells/ml) were treated with various doses of AGN19424 for 3 days (the left two panels). Viable cells were counted and were presented as percentage of control (cells without treatment).
Overexpressing activated RXR may mediate growth inhibitory effects in some human carcinoma cells (17). To confirm that the effects of RXR agonists were mediated by RXR proteins and explore the molecular mechanism, two RXR stably expression cell lines were generated using B lymphoma cell (DT40) and T lymphoma cells (Jurkat cells), which are named DT40RXR and JurkatRXR (FIG. 1A, left panel).
as §4

[9] = target: T1, RXRα (Homo sapiens, UniProt P19793); test: Ligand-dependent recruitment of protein kinase to Flag-RXRα immunocomplexes (immunoprecipitation, in vitro kinase assay); type: cell-based; conditions: for recruitment of protein kinase to RXR immunocomplexes: transfected HEK293 cells, ligands at 10^-6 M, 15 minutes
T1 construct: expressed in transfected cells; host or cells: HEK293
T1 sequence (P19793 1-462): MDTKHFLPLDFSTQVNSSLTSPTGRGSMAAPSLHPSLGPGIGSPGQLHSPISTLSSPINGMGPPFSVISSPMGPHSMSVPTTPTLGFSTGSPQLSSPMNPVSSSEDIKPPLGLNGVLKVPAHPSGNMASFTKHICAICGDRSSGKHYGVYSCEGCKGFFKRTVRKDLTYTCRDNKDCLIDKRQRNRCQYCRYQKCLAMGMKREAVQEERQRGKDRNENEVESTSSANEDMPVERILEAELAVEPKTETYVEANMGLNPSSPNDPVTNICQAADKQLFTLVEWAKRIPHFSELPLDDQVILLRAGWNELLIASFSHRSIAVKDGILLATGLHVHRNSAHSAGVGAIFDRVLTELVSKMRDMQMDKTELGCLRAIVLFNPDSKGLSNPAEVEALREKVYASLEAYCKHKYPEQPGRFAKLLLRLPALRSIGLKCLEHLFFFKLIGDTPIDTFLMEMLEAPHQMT
From the text: Total cell lysates were immunoprecipitated with anti-Flag antibody (M2). An aliquot of the immunocomplexes were used for the in vitro kinase reaction with [γ-^32P]ATP and separated on SDS-PAGE. The phosphorylated proteins were detected by autoradiography (right panel). To show the presence of equal amounts of RXR in the immunoprecipitates, additional aliquots of the immunocomplexes were subjected to immunoblotting with a polyclonal antibody (D20) against RXR (left panel).
In vitro kinase reaction assay was performed.

[10] = test system: RXRα homodimers; test: Transactivation assay, pRXRE-Luc (DR-1) reporter in CV-1 cells; type: cell-based; conditions: 10^-8 M, 16 hr, CV1 cells
Protocol: (§5) FIGS. 4A, 4B and 4C display evidence of transactivation by RXRα homodimers or RXRα:RARα heterodimers is not modulated by CK1α. For the left panel, CV1 cells were cotransfected with pFlag-RXRα, reporter plasmid pRXRE-Luc, β-galactosidase expression vector, plus increasing amount of CK1α expression vector (lane 1 and 2: 0 ng; lane 3: 50 ng; lane 4: 100 ng; lane 5: 200 ng), or sense strand CK1α or double-strand RNAi CK1α, or sense strand CK1ε or double-strand RNAi CK1ε. […] Data are presented as the activity of luciferase normalized to that of β-galactosidase activity, which served as an internal control for transfection efficiency and are the mean of three independent experiments with triplicates for each. For the middle panel, CV1 cells were cotransfected with pFlag-RXRα, pRAR-V5, reporter plasmid pRARE-Luc, β-galactosidase expression vector, plus sense strand CK1α or double-strand RNAi CK1α. […] Data are presented as the activity of luciferase normalized to that of β-galactosidase activity and are the mean of three independent experiments with triplicates for each. CK1α could efficaciously be depleted in CV-1 cells by small double-strand RNAi, judged by immunoblotting the total cell lysates with anti-CK1α antibodies (left panel).
CK1α is the smallest in the CK1 family. […] The role of CK1α in transactivation by RXR homodimers and RXR:RAR heterodimers was determined. […]

[11] = test system: Jurkat-pSupCK1α cells; test: Apoptotic populations in CK1α-suppressed Jurkat cells; type: cell-based; conditions: 3 days
Protocol: FIGS. 4J, 4K, 4L and 4M show effects of depletion of CK1α on Jurkat cells: A cell line (Jurkat-pSupCK1α) in which CK1α expression is suppressed by stably expressing SiRNA CK1α was generated from Jurkat cells (left panel). The effect of COMPOUND-1 (4 days) on growth inhibition of Jurkat and Jurkat-pSupCK1α cells was measured (the second panel).
Based on this observation, CK1α negative regulation RXR-mediated apoptosis. HEK293RXR and Jurkat cells were used to deplete the expression of endogenous CK1α by stably transfecting CK1α RNAi expression vector. Although the depletion of endogenous CK1α in both cell lines was not very efficient, (with a 30% to 50% decrease for the expression of CK1α achieved in both cell lines) after decreasing the CK1α expression, both cell lines were becoming very sensitive to the treatment of RXR agonist in term of the cell growth inhibition (FIGS. 4J, 4K, 4L and 4M). Apoptotic cell populations of Jurkat-pSupCK1 (containing the CK1α RNAi construct) is increased compared to the parental cell lines in the presence of RXR agonist (FIGS. 4J, 4K, 4L and 4M).

[12] = test system: DT40 cells; test: Activation of caspases 3 and 9; type: cell-based
Protocol: as §3, §4

[13] = test system: RXR-associated kinase; test: Effect of signalling pathway modulators on RXR-associated kinase activity in RXR transfected cells; type: cell-based; conditions: cell treatment: anisomycin 50 μM; pathway inhibitors 1 hour; insulin 30 minutes
Protocol: (§6) The cells were stimulated with anisomycin (50 μM) and COMPOUND-1 (10^−7 M) as indicated, then the cell lysates were subjected to immunoprecipitation and in vitro kinase assay (bottom panel).
(§7) Activation of stress pathways lead to the phosphorylation of RXR (22,23), and MKK4/SEK1 is reported to associate with and phosphorylate RXR directly (23). […] Anisomycin treatment led to phosphorylation of RXR resulting in an up-shift of the RXR band on SDS-PAGE (22).
To further study the effect of signaling transduction pathways on the RXR-associated kinase activity, RXR transfected cells were incubated with inhibitors of the PI3 kinase (wortmannin), p42/44 MAPK (PD98059), or p38 MAPK pathways (SB202190 or SB203580) for 1 hour or stimulated with insulin or 10% serum for 30 minutes. RXR complexes were then isolated and the in vitro kinase assays were performed in the usual manner.

[14] = test system: RXR:RAR heterodimers; test: Transactivation assay, pRARE-Luc reporter in CV-1 cells; type: cell-based; conditions: CV-1 cells cotransfected with RXRα and RARα; 10^-7 M, 16 hr
Protocol: as §5
Similar transfection experiments were also performed using pRARE-Luc as reporter with cotransfection of RXRα and RARα. […]

[15] = test system: MKK4; test: MKK4 phosphorylation (stress pathway activation) by immunoblotting; type: cell-based; conditions: HEK293 transfected with RXR or RXR plus MKK4
Protocol: as §6, §7, §2

- IC50 [1]: ~30 µM
Compound: NCCNS(=O)(=O)c1ccc(Cl)c2ccncc12 [CK1-7, N-(2-amino-ethyl)-5-chloroisoquinoline-8-sulfonamide]
- IC50 [2]: 10 to 100 µM

- kinase activity in Flag-RXR immunoprecipitated complex when ligand added only to the in vitro kinase reaction ([9]; immunoprecipitation in absence of Compound 1, added later to kinase reaction mixture): could not be detected
Compound: CC(/C=C/C1CC1(C)c1ccc2c(c1)C(C)(C)CCC2(C)C)=C\C(=O)O (stereo not shown) [Compound 1]
- apoptotic cells [3]: 4.5%
- apoptotic cells [4]: 57.3%
- apoptotic cells [5]: 3.4%
- apoptotic cells [6]: 36.4%
- activation of caspases 3 and 9 [7]: activated
- efficacy in cell death/growth inhibition on overexpression of RXR [8]: dramatically increase the efficacy
- recruitment of protein kinase to RXR immunocomplexes [9]: contained the kinase that could phosphorylate RXR and the 160 kDa protein
- DR-1 luciferase expression [10]: greatly stimulated
- apoptotic populations [11]: dramatic increase of apoptotic populations

Compound: OO [Compound H2O2, hydrogen peroxide, reference compound]
- activation of caspases 3 and 9 [12]: could activate caspases 3 and 9
- activation of caspases 3 and 9 [7]: could activate caspases 3 and 9

Compound: COc1cccc(-c2cc(=O)c3ccccc3o2)c1N [PD98059]
- effect on kinase activities in the RXR immunocomplexes [13]: not influenced to a significant degree

Compound: Oc1ccc(-c2nc(-c3ccncc3)c(-c3ccc(F)cc3)[nH]2)cc1 [SB202190]
- effect on kinase activities in the RXR immunocomplexes [13]: not influenced to a significant degree

Compound: C[S+]([O-])c1ccc(-c2nc(-c3ccncc3)c(-c3ccc(F)cc3)[nH]2)cc1 (stereo not shown) [SB203580]
- effect on kinase activities in the RXR immunocomplexes [13]: not influenced to a significant degree

- recruitment of protein kinase to RXR immunocomplexes [9]: did not recruit the protein kinase
Compound: C/C(=C\c1ccc(C(=O)O)cc1)c1ccc2c(c1)C(C)(C)CCC2(C)C [TTNPB, reference compound]
- activation of RXR:RAR heterodimers (pRARE-Luc) [14]: activated

Compound: COc1ccc(C[C@H]2NC[C@H](O)[C@H]2OC(C)=O)cc1 [anisomycin]
- effect on kinase activities in the RXR immunocomplexes [13]: not affected by anisomycin treatment
- phosphorylation of MKK4 [15]: increased phosphorylation of both endogenous and overexpressed MKK4

Compound: insulin: insulin used to stimulate RXR transfected cells for 30 minutes
- effect on kinase activities in the RXR immunocomplexes [13]: not influenced to a significant degree
